# Data: ChEMBL document CHEMBL3727366, “Heterocyclic compounds for the treatment of stress-related conditions” (2013)
# pIC50, pKi: −log10 of the molar value. Calls of active or inactive are those of the source. How the calls were made is not given here.
# How the values were obtained:
# Rattus norvegicus [1] = assay: Inhibition of tail-pinch stress-induced feeding behavior in Wistar rat at 5 mL/kg, po dosed 1 or 2 hrs before tail-pinch stimulus; assay type: functional, organism-based
# [2] = target: T1, Prolactin-releasing peptide receptor (Homo sapiens, UniProt P49683); assay: Displacement of [3H]-PrRP from human GPR10 receptor expressed in HEK293 cell membranes incubated for 90 mins by liquid scintillation counting method
# T1 sequence (P49683 whole entry): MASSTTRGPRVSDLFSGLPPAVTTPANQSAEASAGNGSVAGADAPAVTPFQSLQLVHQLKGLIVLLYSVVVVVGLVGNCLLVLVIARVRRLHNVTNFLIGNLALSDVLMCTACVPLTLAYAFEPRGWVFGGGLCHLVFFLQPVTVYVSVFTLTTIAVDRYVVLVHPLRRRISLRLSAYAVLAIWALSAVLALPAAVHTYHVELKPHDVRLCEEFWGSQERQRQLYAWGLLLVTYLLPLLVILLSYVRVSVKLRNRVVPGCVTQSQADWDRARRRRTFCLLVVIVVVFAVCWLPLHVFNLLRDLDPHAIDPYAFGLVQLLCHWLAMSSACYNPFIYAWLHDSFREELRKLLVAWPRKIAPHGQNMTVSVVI
# Rattus norvegicus [3] = assay: Inhibition of restraint stress-induced defecation in Wistar rat at 5 mL/kg, po dosed 1 or 2 hrs before restraint stress; assay type: functional, organism-based
# [4] = target: T1, Prolactin-releasing peptide receptor; assay: Antagonist activity against human GPR10 receptor expressed in HEK293 cells assessed as inhibition of PrRP-induced intracellular calcium mobilization pre-incubated for 15 mins before PrRP addition by Fluo-8 dye based fluorescence imaging plate reader method; assay type: functional, cell-based
Compound,inhibition (Rattus norvegicus [1]),pKi [2],inhibition (Rattus norvegicus [3]),pIC50 [4]
COn1c(N[C@H](c2ccc(Cl)cc2)C(C)C)nc2c(c1=O)CN(C(=O)c1cc3ccccc3cn1)CC2,Active,7.59,Active,–
C[C@H](Nc1nc2c(c(=O)n1N1CCOCC1)CN(C(=O)c1ccc(C#N)cc1F)CC2)c1ccc(C(F)(F)F)cc1,Active,8.52,Active,6.73
COn1c(N[C@@H](C)c2ccc(C(F)(F)F)cc2)nc2c(c1=O)CN(C(=O)c1cc3occc3n1C)CC2,Active,8.00,Active,–
COn1c(N[C@@H](C)C2CCCCC2)nc2c(c1=O)CN(C(=O)c1ccc(C#N)cc1F)CC2,Active,7.25,Active,–
COn1c(N[C@@H](C)c2ccc(C(F)(F)F)cc2)nc2c(c1=O)CN(C(=O)c1cc3cccnc3s1)CC2,Active,8.05,Active,–
COn1c(N[C@@H](C)c2ccc(C(F)(F)F)cc2)nc2c(c1=O)CN(C(=O)c1ccc(C)c(F)c1)CC2,Active,8.10,Active,–
COn1c(N[C@H](c2ccc(Cl)cc2)C(C)C)nc2c(c1=O)CN(C(=O)c1ccc3c(c1)CCC(=O)N3C)CC2,Active,7.62,Active,–
COn1c(N[C@@H](C)C2CCCCC2)nc2c(c1=O)CN(C(=O)c1ccc(Cl)cc1)CC2,Active,6.97,Active,–
COn1c(N[C@@H](C)c2ccc(C(F)(F)F)cc2)nc2c(c1=O)CN(C(=O)c1ccc(C)s1)CC2,Active,8.00,Active,5.95
C[C@H](Nc1nc2c(c(=O)n1N1CCCC1)CN(C(=O)c1ccc(C#N)cc1F)CC2)c1ccc(C(F)(F)F)cc1,Active,8.22,Active,6.53
CCOn1c(N[C@@H](C)c2ccc(C(F)(F)F)cc2)nc2c(c1=O)CN(C(=O)c1ccc(C#N)cc1F)CC2,Active,8.30,Active,6.64
COn1c(N[C@@H](C)c2ccc(C(F)(F)F)cc2)nc2c(c1=O)CN(C(=O)COc1ccc(Cl)cc1)CC2,Active,8.10,Active,6.17
COn1c(N[C@@H](C)c2ccc(C(F)(F)F)cc2)nc2c(c1=O)CN(C(=O)c1ccc(Cl)s1)CC2,Active,7.82,Active,5.06
COn1c(N[C@H](c2ccc(Cl)cc2)C(C)C)nc2c(c1=O)CN(C(=O)c1ccc(-n3ccnc3)cc1)CC2,Active,7.51,Active,–
C[C@H](Nc1nc2c(c(=O)n1N1CCCC1)CN(C(=O)c1ccc(C#N)cc1)CC2)c1ccc(C(F)(F)F)cc1,Active,8.00,Active,6.19
COc1ccc2oc(C(=O)N3CCc4nc(N[C@@H](C)c5ccc(C(F)(F)F)cc5)n(OC)c(=O)c4C3)cc2c1,Active,7.85,Active,–
COn1c(N[C@H](C)C2CCCCC2)nc2c(c1=O)CN(C(=O)c1ccc(C#N)cc1F)CC2,Active,7.21,Active,–
COn1c(N[C@@H](C)c2ccc(C(F)(F)F)cc2)nc2c(c1=O)CN(C(=O)CSc1ccc(Cl)cc1)CC2,Active,8.10,Active,5.94
COn1c(N[C@@H](C)c2ccc(C(F)(F)F)cc2)nc2c(c1=O)CN(C(=O)COc1ccc(C#N)cc1)CC2,Active,8.22,Active,–

Compound,inhibition (Rattus norvegicus [1]),pKi [2],inhibition (Rattus norvegicus [3]),pIC50 [4]
COn1c(N[C@H](c2ccc(Cl)cc2)C(C)C)nc2c(c1=O)CN(C(=O)c1cc3ccccn3n1)CC2,Active,7.89,Active,–
COn1c(N[C@@H](C)c2ccc(C(F)(F)F)cc2)nc2c(c1=O)CN(C(=O)c1cc3ccccc3s1)CC2,–,7.82,–,–
COn1c(N[C@@H](C)c2ccc(C(F)(F)F)cc2)nc2c(c1=O)CN(C(=O)c1cc(-c3cccs3)n(C)n1)CC2,Active,7.70,Active,–
COn1c(N[C@H](c2ccc(Cl)cc2)C(C)C)nc2c(c1=O)CN(C(=O)c1ccc3c(c1)OCCO3)CC2,Active,7.38,Active,–
COn1c(N[C@@H](C)c2ccc(C(F)(F)F)cc2)nc2c(c1=O)CN(C(=O)/C=C/c1ccc(Cl)cc1)CC2,Active,7.92,Active,5.24
CCOn1c(N[C@@H](C)c2ccc(C(F)(F)F)cc2)nc2c(c1=O)CN(C(=O)c1ccc(-c3cnco3)cc1)CC2,Active,7.70,Active,6.80
CCOn1c(N[C@@H](C)c2ccc(C(F)(F)F)cc2)nc2c(c1=O)CN(C(=O)c1cc3cccnc3s1)CC2,Active,7.77,Active,5.77
CCOn1c(N[C@@H](C)c2ccc(C(F)(F)F)cc2)nc2c(c1=O)CN(C(=O)c1ccc(C#N)cc1)CC2,Active,7.96,Active,6.81
COn1c(N[C@@H](C)c2ccc(C(F)(F)F)cc2)nc2c(c1=O)CN(C(=O)c1ccc3c(c1)OCCO3)CC2,Active,8.00,Active,–
CC(C)COn1c(N[C@@H](C)c2ccc(C(F)(F)F)cc2)nc2c(c1=O)CN(C(=O)c1ccc(C#N)cc1F)CC2,Active,7.48,Active,–
CC[C@H](Nc1nc2c(c(=O)n1OC)CN(C(=O)c1ccc(C#N)cc1F)CC2)c1ccc(C(F)(F)F)cc1,Active,8.10,Active,–
COn1c(N[C@@H](C)c2ccc(C(F)(F)F)cc2)nc2c(c1=O)CN(C(=O)c1ccc(Cl)o1)CC2,Active,7.32,Active,–
CCOn1c(N[C@@H](C)c2ccc(C(F)(F)F)cc2)nc2c(c1=O)CN(C(=O)c1ccc(Cl)cc1)CC2,Active,7.60,Active,5.43
"COn1c(NC(C)c2ccc(Cl)cc2)nc2c(c1=O)CN(C(=O)COc1ccc(Cl)cc1)CC2 (single isomer, unassigned)",Active,7.82,Active,5.93
COc1ccc(C(=O)N2CCc3nc(N[C@@H](C)c4ccc(C(F)(F)F)cc4)n(OC)c(=O)c3C2)c(OC)n1,Active,8.15,Active,6.64
COn1c(N[C@@H](C)c2ccc(C(F)(F)F)cc2)nc2c(c1=O)CN(C(=O)c1ccc(C)c(C)c1)CC2,Active,8.40,Active,5.99
COn1c(N[C@@H](C)c2ccc(C(F)(F)F)cc2)nc2c(c1=O)CN(C(=O)CCc1ccc(Cl)cc1)CC2,Active,6.87,Active,5.41
CC#CCn1c(N[C@@H](C)c2ccc(C(F)(F)F)cc2)nc2c(c1=O)CN(C(=O)c1ccc(C#N)cc1F)CC2,Active,–,Active,–
